Experimental data as given in patent US6548041B1, “Dopamine transporter imaging agents” (Organix, Inc., priority 1999, dated 2003).

What was measured:
[1] = biological target: T1, DAT sites (Macaca mulatta, UniProt Q7JHP9); assay: Selectivity for DAT sites in the monkey brain (displacement by unlabeled CFT); type: in vivo
T1 construct: from tissue; host or cells: brain (striatum) of living rhesus monkeys, imaged in vivo
Experimental: For this study, a monkey was positioned supine on the imaging table of the MultiSPECT 2 gamma camera and injected with ˜20 mCi of ^99mTc O-1560T as described above. At approximately 20 min. after radiopharmaceutical administration, the animal was injected with CFT (1.0 mg/kg) and imaging was continued for an additional 70 min.
(§1) SPECT slices with greatest striatal activity or in which the occipital cortex was well visualized were summed and regions of interest (ROI's) were constructed. In the striatal planes, ROI's were placed on the right and left striatum (caudate+putamen). Radioactivity in the right and left striatum were averaged. ROI radioactivities (cpm/cc) were decay corrected to the time of injection. The difference between striatal and occipital cortex activity (specific binding) was calculated for each image and was plotted as a function of time. Corrections for scattered fraction and partial volume effects were not performed.

[2] = Biodistribution and radiation dosimetry (MIRdose); type: in vivo, Sprague-Dawley rats
Experimental: Groups of male Sprague-Dawley rats were in injected with ˜10 mCi of ^99mTc labeled O-1505T and O-1561T. At time intervals between 5 min. and 24 hrs after injection, groups of 6 animals injected with each radiopharmaceutical were sacrificed and biodistribution was measured. Samples of blood, heart, lung, liver, spleen, kidney, adrenal, stomach, GI tract, testes, bone, bone marrow and skeletal muscle were weighed and radioactivity was measured with a well type gamma counter (LKB model #1282, Wallac Oy, Finland). To correct for radioactive decay and permit calculation of the concentration of radioactivity in each organ as a fraction of the administered dose, aliquots of the injected doses were counted simultaneously. The results were expressed as percent injected dose per gram (%I.D./g) and radiation dosimetry was estimated by the MIRdose method.

[3] = biological target: T2, DAT sites in striatum (Macaca mulatta, UniProt Q7JHP9); assay: SPECT of MPTP treated monkeys (animal model of Parkinson's disease); type: in vivo, rhesus monkey; settings: one month after MPTP treatment
T2 construct: from tissue; host or cells: brain (striatum) of living rhesus monkeys, imaged in vivo
T2 sequence (Q7JHP9 1-620): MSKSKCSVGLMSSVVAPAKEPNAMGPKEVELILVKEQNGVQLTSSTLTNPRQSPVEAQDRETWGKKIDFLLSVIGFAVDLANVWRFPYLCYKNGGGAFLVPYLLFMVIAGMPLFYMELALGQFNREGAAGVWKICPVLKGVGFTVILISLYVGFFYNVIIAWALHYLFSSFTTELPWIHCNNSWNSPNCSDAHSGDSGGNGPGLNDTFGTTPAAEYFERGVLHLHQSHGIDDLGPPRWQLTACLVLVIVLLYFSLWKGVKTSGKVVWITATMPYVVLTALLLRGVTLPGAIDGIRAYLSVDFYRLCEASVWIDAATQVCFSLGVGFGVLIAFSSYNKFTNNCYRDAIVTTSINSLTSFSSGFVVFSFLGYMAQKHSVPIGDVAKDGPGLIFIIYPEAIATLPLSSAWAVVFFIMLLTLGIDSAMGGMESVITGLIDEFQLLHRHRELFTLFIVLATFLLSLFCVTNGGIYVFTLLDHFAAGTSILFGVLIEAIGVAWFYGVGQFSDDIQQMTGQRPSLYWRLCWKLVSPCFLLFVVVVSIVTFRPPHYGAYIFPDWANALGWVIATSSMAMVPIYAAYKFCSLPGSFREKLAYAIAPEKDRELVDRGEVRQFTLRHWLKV
Description: The neurotoxin MPTP ([…]), when administered to monkeys, produces a spectrum of motor, cognitive, biochemical and morphological changes that is not replicated in rodents. MPTP-treated monkeys develop neurological deficits (resting tremor, rigidity, akinesia, postural abnormalities), morphological changes (cell loss in the substantia nigra, ventral tegmental area, retrorubal fields) and biochemical changes (severe depletion of DA and decreases in norepinephrine and serotonin) that closely, parallel idiopathic PD and post-encephalitic Parkinsonism.
Two monkeys were treated with MPTP; 3-5 doses of 0.6 mg/kg administered over 10 days. Treatment was performed under ketamine anesthesia (15 mg/kg). This dose of MPTP, has previously been used to produce Parkinsonism within 2-3 weeks and depletion of ^3H or ^11C. CFT binding sites by one month. Animals treated in this manner were expected to show an inverse relationship between SPECT tracer binding and motor dysfunction. […]
SPECT slices with greatest striatal activity or in which the occipital cortex was well visualized were summed and regions of interest (ROI's) were constructed. […] Radioactivity in the right and left striatum were averaged. […] The difference between striatal and occipital cortex activity (specific binding) was calculated for each image and was plotted as a function of time. […]

[4] = biological target: T2, DAT sites in striatum; assay: SPECT imaging of monkey brain with 99mTc labeled tracers; type: in vivo, Rhesus monkeys
Experimental: (§2) All SPECT images were acquired with a MultiSPECT 2 gamma camera (Siemens, Hoffman Estates, Ill.) equipped with fan-beam collimators and peaked to the 140 KeV photopeak of ^99mTc (15% window). This camera has intrinsic resolution of 4.6 mm (FWHM), and a sensitivity of ˜240 cps/mCi. Images were acquired over 360° (60 projections/head, 128×128 matrix) in the continuous mode. Image reconstruction was performed using a conventional filtered back-projection algorithm to an in-plane resolution of 10 mm FWHM and attenuation correction via the Chang method.
(§3) Rhesus monkeys weighing approximately 7 kg were anesthetized with ketamine/xylazine (15.0 and 1.5 mg/kg) and positioned prone on the imaging bed of the SPECT camera. Before the start of imaging, a venous catheter was inserted in a peripheral vein for radiopharmaceutical administration. The heads of the animals were immobilized with a custom fabricated head holder. Approximately 20-25 mCi of ^99mTc labeled O-1505T, O-1508T, O-1561T or O-1560T was injected intravenously over 60 seconds. Dynamic SPECT imaging was initiated at the end of the infusion and consisted of 2 min. acquisitions during the first hour and 5 min. acquisitions thereafter.
as §1

[5] = tested on: DAT sites in striatum; assay: as above; type: in vivo, Rhesus monkeys; settings: SPECT images
Experimental: as §2, §3, §1

T1 sequence (Q7JHP9 1-620): as above

CCC(=O)C1C(c2ccc(F)cc2)CC2CCC1N2CCCN1CC[S][99Tc]2(=[O])[S]CC[N]2C(=O)C1 (stereo not drawn) [Compound O-1505T, N-[(2-((3′-N′-Propyl-(1″R)-2″β-1-propanoyl-3″α-(4-fluorophenyl)-tropane)-(2-mercaptoethyl)amino)acetyl)-2-aminoethanethiolato]technetium (V) Oxide]
striatal accumulation after a receptor saturating dose of unlabeled CFT ([1]; CFT 1.0 mg/kg at about 20 min, by 60 minutes after injection): no evidence of focal accumulation in the striatum | accumulation in the striatum (SPECT images) ([1]; before injection of CFT): significant accumulation | time after injection to excellent contrast between striatum and the rest of the brain ([1]; before the effect of CFT): ≤ 30 min | radiation dose to target organ (urinary bladder) ([2]; MIRdose calculations from rat biodistribution): 0.29 rem/mCi | total body effective dose ([2]; MIRdose estimate from rat biodistribution): 0.037 rem/mCi | clearance from tissues (biodistribution) ([2]; rat, 5 min to 24 hrs after injection): cleared rapidly from all tissues of the rat | striatal accumulation after MPTP treatment compared with normal animals [3]: the level of accumulation decreased markedly and the striatum could not be differentiated from surrounding structures | time after injection to excellent contrast between striatum and the rest of the brain ([4]; i.v., normal monkeys): ≤ 30 min | accumulation of radioactivity in striatum vs other areas of the brain (SPECT images) ([4]; images acquired between 30 and 50 minutes after injection): high concentrations of radiopharmaceutical in the striatum with minimal accumulation in other areas of the brain | striatal to occipital cortex ratio ([4]; region of interest analysis, SPECT images 30-50 minutes after i.v. injection of 20-25 mCi): ~2.5 | accumulation in thalamus, hypothalamus or midbrain (regions rich in 5-HT transporters) [5]: lack of accumulation
